The record followed here is patent publication US10406146B2, “Heterocyclic compound” (TAKEDA PHARMACEUTICAL COMPANY LIMITED, priority 2015, dated 2019).

What all share (assay type): biochemical
Common to all, as to conditions: wells without enzyme = 100% inhibition

The target of one test is T1, HDAC6 enzyme (Homo sapiens, UniProt Q9UBN7).
T1 construct: transducing full length HDAC1 and HDAC6 genes into Sf-9 insect cells; GST; purchased SignalChem; host or cells: Sf-9 insect cells
T1 sequence (Q9UBN7 1-1215): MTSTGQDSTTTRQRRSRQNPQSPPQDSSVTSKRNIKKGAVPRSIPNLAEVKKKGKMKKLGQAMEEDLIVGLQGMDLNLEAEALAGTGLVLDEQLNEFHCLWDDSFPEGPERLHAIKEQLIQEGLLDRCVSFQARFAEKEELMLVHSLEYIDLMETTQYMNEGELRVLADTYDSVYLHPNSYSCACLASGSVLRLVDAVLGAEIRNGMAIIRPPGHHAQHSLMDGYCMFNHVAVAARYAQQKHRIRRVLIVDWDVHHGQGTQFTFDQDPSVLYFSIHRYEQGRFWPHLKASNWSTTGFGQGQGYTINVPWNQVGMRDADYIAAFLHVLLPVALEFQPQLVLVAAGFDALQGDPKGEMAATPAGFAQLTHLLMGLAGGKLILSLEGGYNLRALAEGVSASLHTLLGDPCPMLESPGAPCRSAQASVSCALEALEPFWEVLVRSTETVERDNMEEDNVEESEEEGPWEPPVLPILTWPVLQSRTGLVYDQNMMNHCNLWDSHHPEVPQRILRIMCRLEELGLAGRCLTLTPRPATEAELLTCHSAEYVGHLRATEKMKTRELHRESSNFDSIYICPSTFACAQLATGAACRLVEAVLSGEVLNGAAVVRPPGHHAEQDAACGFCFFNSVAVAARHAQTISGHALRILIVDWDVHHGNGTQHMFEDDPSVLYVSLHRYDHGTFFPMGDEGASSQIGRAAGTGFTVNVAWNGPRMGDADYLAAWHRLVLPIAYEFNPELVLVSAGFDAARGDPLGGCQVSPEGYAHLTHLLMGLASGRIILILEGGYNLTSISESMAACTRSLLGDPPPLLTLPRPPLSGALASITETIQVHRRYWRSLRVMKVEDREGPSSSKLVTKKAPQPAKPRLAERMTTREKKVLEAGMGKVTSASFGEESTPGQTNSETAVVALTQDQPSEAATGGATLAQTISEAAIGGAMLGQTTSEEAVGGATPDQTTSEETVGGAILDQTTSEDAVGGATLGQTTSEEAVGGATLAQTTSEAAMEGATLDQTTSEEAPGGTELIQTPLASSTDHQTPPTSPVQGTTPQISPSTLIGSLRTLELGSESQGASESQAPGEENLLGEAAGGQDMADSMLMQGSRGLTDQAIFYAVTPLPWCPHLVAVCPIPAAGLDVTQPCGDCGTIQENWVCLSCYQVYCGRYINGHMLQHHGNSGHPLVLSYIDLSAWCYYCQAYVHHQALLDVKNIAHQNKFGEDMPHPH
Nature of the test: HDAC6 enzyme inhibitory assay (HDAC-Glo I/II Assay kit). In a few lines:
(§1)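 Luminescence readout (HDAC-Glo I/II) after 20 min RT reaction of GST-purified full-length HDAC1 or HDAC6 (Sf-9 expressed) with substrate-developer; enzyme and compound preincubated 60 min RT; buffer 24 mM Tris-HCl pH 7.5, 0.6 mM glutathione, 0.01% Tween-20; no-enzyme wells = 100% inhibition.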

The target of another test is T2, HDAC9 enzyme (Homo sapiens, UniProt Q9UKV0).
T2 construct: transducing full length HDAC9 gene into Sf-9 insect cells; made in house; host or cells: Sf-9 insect cells
The test can be described thus: HDAC9 enzyme inhibitory assay (HDAC-Glo class IIa). In short, it runs like this:
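Full-length human HDAC9 from Sf-9 cells, Ni-NTA purified, preincubated with compound for 60 min at room temperature in Tris-HCl pH 7.5 buffer (MgCl2, KCl, NaCl, glutathione, Tween-20). HDAC-Glo class IIa substrate-developer added; luminescence read after 20 min, with no-enzyme wells defining 100% inhibition.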

For another test, the target named is T3, HDAC1 enzyme (Homo sapiens, UniProt Q13547).
T3 construct: transducing full length HDAC1 and HDAC6 genes into Sf-9 insect cells; GST; purchased SignalChem; host or cells: Sf-9 insect cells
Nature of the test: HDAC1 enzyme inhibitory assay (HDAC-Glo I/II Assay kit). In short, it runs like this: as §1

T3 sequence (Q13547 whole entry): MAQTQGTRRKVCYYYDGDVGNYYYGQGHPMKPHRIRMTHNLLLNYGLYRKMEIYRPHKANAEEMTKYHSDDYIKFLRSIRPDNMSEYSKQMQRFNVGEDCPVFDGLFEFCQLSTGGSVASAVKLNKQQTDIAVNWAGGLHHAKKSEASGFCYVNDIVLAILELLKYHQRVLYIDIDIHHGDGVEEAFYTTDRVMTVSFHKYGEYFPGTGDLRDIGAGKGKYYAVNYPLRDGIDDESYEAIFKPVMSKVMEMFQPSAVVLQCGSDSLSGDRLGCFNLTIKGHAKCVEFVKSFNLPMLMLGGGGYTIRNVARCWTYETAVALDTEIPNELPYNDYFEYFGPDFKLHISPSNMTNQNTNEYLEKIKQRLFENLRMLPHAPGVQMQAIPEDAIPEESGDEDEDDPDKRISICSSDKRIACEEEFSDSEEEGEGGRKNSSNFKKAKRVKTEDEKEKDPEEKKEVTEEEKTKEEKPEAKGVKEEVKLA
T2 sequence (Q9UKV0 whole entry, species assumed): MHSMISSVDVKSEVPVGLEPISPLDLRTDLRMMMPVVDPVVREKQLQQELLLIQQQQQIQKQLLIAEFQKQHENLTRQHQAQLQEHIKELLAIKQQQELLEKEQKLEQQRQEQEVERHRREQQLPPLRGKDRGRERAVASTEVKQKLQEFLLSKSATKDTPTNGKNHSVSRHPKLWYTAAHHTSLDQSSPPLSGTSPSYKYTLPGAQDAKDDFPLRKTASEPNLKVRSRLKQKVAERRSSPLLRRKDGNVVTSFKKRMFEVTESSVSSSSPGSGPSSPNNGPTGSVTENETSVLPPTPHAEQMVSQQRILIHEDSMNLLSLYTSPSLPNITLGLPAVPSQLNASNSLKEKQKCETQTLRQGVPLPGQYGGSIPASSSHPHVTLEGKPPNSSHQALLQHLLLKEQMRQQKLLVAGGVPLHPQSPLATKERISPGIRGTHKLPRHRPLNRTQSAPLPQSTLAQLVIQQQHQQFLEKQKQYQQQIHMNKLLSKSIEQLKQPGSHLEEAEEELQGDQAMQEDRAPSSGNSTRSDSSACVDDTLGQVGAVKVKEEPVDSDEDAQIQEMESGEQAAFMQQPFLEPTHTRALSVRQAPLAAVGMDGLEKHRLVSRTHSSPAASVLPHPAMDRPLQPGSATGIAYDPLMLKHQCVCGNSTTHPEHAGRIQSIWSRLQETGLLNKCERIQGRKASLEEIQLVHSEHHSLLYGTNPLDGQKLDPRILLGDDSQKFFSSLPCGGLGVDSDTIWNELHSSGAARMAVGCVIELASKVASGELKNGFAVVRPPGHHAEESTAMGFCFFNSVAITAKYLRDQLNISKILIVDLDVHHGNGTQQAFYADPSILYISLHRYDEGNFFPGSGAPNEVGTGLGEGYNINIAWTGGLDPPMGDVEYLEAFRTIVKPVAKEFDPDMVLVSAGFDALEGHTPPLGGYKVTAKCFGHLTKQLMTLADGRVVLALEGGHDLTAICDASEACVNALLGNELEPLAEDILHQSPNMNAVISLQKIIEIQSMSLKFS

`COc1ccccc1C(=O)NCC1CCCCN1C(=O)Nc1ccc(-c2noc(C(F)(F)F)n2)cc1` (stereo not drawn) [Example 23]: the “HDAC6 inhibitory rate (%) (1 μM)” value at HDAC6 enzyme was found to be 4%. Besides, at HDAC9 enzyme, the “HDAC9 inhibitory rate (%) (1 μM)” value amounted to 86%. For the same molecule, the “HDAC1 inhibitory rate (%) (1 μM)” value on HDAC1 enzyme amounted to 41%.
On to `Cn1nccc1C(=O)NC[C@H]1COCCN1C(=O)Nc1ccc(-c2noc(C(F)(F)F)n2)cc1` [Example 62, (3S)-3-((((1-methyl-1H-pyrazol-5-yl)carbonyl)amino)methyl)-N-(4-(5-(trifluoromethyl)-1,2,4-oxadiazol-3-yl)phenyl)morpholine-4-carboxamide], for which the inhibition at 1 µM at HDAC6 enzyme (read-out: HDAC6 inhibitory rate (%) (1 μM)) amounted to 6%; at HDAC9 enzyme (read-out: HDAC9 inhibitory rate (%) (1 μM)), 92%; at HDAC1 enzyme (read-out: HDAC1 inhibitory rate (%) (1 μM)) it was 53%.
